Experimental findings from ChEMBL document CHEMBL5465560, “Selectivity Literature for EUbOPEN Chemogenomic Library” (2024) are described below.

In test [1] the target is Mitogen-activated protein kinase kinase kinase 14 (Homo sapiens) (UniProt Q99558). In words: Selectivity interaction (LanthaScreen Eu Kinase Binding Assay) EUB0001632a MAP3K14. As to conditions: at 10 µM.
The target of test [2] is Dual specificity mitogen-activated protein kinase kinase 2 (Homo sapiens) (UniProt P36507). The test can be described thus: Selectivity interaction (KinomeScan (DiscoverX)) EUB0000595a MAP2K2. As to conditions: at 10 µM.
Test [3] concerns the target T1, Aurora kinase A (Homo sapiens) (UniProt O14965).
T1 sequence (whole entry): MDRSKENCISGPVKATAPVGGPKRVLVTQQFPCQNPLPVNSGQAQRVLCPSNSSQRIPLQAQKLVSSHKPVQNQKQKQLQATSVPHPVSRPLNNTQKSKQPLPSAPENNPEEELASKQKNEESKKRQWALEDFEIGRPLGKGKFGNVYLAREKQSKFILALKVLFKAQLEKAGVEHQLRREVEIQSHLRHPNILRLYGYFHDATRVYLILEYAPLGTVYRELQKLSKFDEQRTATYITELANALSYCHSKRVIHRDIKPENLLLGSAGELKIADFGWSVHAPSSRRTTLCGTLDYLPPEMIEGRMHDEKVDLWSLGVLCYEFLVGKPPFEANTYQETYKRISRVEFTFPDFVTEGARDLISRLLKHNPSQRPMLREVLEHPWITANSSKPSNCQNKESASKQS
The test can be described thus: Selectivity interaction (KinomeScan (DiscoverX)) EUB0000595a STK6. The settings on record: at 10 µM.

Test [4] addresses T2, Ephrin type-A receptor 6 (Homo sapiens) (UniProt Q9UF33).
T2 sequence (whole entry): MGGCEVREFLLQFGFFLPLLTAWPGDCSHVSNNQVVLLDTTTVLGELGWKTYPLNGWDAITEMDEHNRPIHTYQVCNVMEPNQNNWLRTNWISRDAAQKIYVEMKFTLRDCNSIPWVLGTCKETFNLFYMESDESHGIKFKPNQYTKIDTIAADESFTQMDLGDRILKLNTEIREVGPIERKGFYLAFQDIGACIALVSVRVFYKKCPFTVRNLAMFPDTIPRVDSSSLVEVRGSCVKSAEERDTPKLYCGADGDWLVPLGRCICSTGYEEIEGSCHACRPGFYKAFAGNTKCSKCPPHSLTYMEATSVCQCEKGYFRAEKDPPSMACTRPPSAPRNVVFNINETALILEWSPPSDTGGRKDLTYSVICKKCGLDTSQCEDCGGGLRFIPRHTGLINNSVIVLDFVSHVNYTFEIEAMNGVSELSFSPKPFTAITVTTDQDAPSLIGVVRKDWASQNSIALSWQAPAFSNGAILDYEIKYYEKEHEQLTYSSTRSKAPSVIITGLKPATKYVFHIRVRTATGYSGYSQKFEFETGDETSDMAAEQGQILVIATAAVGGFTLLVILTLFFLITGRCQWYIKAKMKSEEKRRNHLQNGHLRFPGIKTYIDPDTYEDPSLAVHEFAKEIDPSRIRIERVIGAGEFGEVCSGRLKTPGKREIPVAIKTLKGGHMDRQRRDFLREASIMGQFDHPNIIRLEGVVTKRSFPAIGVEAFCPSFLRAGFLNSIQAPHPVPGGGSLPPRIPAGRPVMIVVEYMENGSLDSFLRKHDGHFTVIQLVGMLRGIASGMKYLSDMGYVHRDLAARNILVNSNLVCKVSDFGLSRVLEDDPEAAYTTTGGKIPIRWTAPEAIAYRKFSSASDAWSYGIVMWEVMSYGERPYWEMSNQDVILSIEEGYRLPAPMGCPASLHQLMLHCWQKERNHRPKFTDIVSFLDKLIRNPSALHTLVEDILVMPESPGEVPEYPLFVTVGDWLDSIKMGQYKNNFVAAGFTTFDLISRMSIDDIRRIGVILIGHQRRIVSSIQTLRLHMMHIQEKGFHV
The settings on record: at 10 µM.

Test [5] addresses Casein kinase II subunit alpha (Homo sapiens, UniProt P68400). The settings on record: at 10 µM.
Test [6] addresses RAC-alpha serine/threonine-protein kinase (Homo sapiens, UniProt P31749). The test can be described thus: Selectivity interaction (Kinase screening (Nanosyn)) EUB0000604a AKT1.
Test [7] concerns the target Phosphatidylinositol 4,5-bisphosphate 3-kinase catalytic subunit gamma isoform (Homo sapiens) (UniProt P48736). The test can be described thus: Selectivity interaction (Panel of kinases, GPCRs, ion channels and transporters (enzymatic assay)) EUB0000223bCl PIK3CG.
Test [8] addresses T3, Serine/threonine-protein kinase D1 (Homo sapiens) (UniProt Q15139).
T3 sequence (whole entry): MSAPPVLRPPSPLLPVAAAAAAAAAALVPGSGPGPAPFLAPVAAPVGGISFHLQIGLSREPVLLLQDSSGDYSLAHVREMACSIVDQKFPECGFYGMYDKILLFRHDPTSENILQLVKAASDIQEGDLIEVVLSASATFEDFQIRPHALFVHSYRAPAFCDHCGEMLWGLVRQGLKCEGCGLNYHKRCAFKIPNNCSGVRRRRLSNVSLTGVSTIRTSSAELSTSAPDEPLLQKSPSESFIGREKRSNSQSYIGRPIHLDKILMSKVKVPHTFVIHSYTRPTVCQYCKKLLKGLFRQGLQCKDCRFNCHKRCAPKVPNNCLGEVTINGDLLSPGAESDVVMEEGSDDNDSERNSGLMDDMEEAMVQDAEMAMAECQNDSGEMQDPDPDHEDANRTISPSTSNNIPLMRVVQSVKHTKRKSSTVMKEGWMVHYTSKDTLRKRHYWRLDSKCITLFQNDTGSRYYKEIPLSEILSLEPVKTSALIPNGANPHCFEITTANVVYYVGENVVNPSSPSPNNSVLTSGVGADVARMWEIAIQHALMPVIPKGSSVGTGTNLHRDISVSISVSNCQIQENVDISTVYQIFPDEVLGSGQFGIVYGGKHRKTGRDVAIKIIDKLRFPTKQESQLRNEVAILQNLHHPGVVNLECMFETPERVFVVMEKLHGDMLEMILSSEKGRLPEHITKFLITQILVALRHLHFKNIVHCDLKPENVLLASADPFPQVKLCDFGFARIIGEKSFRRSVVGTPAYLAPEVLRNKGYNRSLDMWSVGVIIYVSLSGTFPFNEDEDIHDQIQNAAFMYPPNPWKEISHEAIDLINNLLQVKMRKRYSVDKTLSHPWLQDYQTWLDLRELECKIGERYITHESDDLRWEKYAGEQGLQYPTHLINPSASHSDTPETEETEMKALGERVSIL
The test can be described thus: Selectivity interaction (KinomeScan (DiscoverX)) EUB0000618a PRKD1. As to conditions: at 10 µM.

Where only a bound is given, the exact number is not on record here.

Chain of Mitogen-activated protein kinase kinase kinase 14 (Homo sapiens) (Q99558 whole entry, looked up): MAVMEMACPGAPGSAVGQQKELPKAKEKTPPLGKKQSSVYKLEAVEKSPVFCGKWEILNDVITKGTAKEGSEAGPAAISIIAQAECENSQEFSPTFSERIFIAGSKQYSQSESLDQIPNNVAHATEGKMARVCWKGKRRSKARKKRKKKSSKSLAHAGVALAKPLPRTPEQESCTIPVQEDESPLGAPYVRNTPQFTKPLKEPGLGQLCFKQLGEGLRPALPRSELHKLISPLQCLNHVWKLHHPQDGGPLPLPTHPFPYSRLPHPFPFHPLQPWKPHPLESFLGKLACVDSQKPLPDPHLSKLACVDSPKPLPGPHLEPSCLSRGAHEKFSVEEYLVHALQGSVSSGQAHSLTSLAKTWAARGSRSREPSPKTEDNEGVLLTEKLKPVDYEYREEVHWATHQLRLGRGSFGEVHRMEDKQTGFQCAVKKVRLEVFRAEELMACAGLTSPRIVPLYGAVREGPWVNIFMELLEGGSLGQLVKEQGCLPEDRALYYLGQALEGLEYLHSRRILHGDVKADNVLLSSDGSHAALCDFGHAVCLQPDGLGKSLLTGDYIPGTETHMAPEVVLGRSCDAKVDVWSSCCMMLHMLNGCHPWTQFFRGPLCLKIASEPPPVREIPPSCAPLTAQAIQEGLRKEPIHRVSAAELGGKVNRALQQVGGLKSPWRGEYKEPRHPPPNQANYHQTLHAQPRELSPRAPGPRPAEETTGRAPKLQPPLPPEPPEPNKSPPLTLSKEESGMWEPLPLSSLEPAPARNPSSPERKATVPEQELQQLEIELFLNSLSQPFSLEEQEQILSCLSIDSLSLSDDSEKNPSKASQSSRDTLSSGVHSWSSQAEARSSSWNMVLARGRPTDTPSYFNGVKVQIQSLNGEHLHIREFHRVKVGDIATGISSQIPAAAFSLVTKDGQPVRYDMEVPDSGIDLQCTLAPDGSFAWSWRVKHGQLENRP
Chain of Dual specificity mitogen-activated protein kinase kinase 2 (Homo sapiens) (P36507 whole entry): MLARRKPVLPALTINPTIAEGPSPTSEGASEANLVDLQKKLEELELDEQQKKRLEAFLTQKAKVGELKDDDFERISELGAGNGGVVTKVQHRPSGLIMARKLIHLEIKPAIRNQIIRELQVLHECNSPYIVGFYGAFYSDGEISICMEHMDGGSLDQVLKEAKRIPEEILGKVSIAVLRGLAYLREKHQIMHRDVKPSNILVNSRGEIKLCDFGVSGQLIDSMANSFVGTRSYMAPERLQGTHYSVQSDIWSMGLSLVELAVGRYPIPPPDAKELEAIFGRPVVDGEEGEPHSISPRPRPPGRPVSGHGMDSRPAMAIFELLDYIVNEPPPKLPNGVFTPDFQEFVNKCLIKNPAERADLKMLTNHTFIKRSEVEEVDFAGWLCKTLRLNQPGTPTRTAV
Chain of Phosphatidylinositol 4,5-bisphosphate 3-kinase catalytic subunit gamma isoform (Homo sapiens) (P48736 whole entry, looked up, canonical isoform): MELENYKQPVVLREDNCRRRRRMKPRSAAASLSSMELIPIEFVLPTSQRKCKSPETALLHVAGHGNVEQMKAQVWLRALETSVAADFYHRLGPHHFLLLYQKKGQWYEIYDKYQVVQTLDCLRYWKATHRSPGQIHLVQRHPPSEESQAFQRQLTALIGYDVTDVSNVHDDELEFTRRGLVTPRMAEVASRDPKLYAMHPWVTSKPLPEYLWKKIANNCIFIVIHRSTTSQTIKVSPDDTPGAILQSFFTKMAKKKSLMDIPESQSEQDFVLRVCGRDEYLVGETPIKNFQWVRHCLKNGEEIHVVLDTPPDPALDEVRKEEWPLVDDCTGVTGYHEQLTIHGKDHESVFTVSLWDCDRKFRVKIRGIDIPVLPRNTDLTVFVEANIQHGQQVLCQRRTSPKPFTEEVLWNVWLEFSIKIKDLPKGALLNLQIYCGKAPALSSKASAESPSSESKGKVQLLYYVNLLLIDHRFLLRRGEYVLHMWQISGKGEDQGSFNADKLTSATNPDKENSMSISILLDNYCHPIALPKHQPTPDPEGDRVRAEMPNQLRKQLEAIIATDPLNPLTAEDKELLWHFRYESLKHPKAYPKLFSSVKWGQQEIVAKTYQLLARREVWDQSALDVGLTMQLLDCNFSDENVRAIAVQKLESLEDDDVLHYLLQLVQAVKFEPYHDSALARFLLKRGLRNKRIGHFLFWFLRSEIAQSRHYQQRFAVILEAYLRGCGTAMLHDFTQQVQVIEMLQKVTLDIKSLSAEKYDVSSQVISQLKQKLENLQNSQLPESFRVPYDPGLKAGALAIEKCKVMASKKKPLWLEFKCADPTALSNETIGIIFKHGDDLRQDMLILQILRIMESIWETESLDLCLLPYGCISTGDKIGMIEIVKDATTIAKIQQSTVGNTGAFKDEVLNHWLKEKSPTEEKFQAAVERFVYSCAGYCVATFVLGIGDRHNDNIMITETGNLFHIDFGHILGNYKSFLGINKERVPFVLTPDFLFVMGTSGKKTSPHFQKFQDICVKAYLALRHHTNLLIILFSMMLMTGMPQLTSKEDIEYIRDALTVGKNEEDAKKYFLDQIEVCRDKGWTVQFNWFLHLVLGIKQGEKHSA
Chain of Casein kinase II subunit alpha (P68400 whole entry, looked up): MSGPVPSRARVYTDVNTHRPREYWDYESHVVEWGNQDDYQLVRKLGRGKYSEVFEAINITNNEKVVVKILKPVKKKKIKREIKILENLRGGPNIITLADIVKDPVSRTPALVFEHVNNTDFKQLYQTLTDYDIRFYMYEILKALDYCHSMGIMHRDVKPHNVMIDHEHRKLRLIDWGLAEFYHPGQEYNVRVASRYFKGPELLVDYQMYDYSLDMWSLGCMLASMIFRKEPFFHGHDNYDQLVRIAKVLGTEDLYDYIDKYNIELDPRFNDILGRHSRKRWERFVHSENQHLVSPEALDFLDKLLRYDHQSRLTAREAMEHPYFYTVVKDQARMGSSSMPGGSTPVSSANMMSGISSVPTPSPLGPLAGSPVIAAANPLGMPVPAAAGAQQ
Chain of RAC-alpha serine/threonine-protein kinase (P31749 whole entry, canonical isoform): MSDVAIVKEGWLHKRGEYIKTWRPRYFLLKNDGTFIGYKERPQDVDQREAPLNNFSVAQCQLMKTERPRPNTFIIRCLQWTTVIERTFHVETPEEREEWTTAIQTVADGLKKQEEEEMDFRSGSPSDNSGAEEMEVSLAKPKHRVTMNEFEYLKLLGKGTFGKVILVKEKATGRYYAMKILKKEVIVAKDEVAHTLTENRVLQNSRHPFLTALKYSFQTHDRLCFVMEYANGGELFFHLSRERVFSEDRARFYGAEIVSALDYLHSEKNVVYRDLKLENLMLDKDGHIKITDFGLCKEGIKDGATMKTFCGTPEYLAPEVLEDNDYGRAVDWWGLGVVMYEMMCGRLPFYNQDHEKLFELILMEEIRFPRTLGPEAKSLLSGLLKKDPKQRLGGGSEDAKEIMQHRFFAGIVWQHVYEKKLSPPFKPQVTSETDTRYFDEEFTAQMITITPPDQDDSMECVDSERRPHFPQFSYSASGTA

For the molecule `Cn1cc(-n2cnc3c(NCc4nc5cc(Cl)c(Cl)cc5[nH]4)nc(N4CCOCC4)nc32)cn1`, the % of inhibition in test [1] is -10.4%.
As to `COCC(=O)NC/C=C/c1ccc2ncnc(Nc3ccc(Oc4ccc(C)nc4)c(C)c3)c2c1` [CP-724714], the % of control is 11% in test [2] and 100% in test [3].
As to `CCN(CC)CCCCNc1ncc2cc(-c3cc(OC)cc(OC)c3)c(NC(=O)NC(C)(C)C)nc2n1`, in test [4], the % of control is 100%.
For the molecule `Cc1cc([C@@H](C)Nc2ccccc2C(=O)O)c2nc(N3CCOCC3)cc(=O)n2c1` [AZD-6482], the % of control in test [5] came to 100%.
Consider `Cc1cnc(Nc2ccc(F)cc2Cl)nc1-c1c[nH]c(C(=O)N[C@H](CO)c2cccc(Cl)c2)c1`, for which the % of inhibition in test [6] came out at 0%.
In test [7], `COc1cc(C(=O)N2CC[C@@H](O)[C@@H](N)C2)cc2nc(-c3cc4ccccc4n3CC3CC3)n(C)c12` displayed a pXC50 of under 4.5 M.
`O[C@H]1CC[C@H](Nc2ncc3nc(Nc4c(F)cc(F)cc4F)n([C@H]4CCOC4)c3n2)CC1` came in with a % of control in test [8] of 46%.
